# Results from US12275721B2, “Indazole carboxamides as kinase inhibitors” (BRISTOL-MYERS SQUIBB COMPANY, priority 2019, dated 2025).
# Tested on: MLKL phosphorylation in HT29-L23 human colorectal adenocarcinoma cells
# Test: MLKL Phosphorylation High-Content Assay
# Assay type: cell-based
# Conditions: Homo sapiens, necroptosis induced with TNFα, SMAC mimetic and Z-VAD, 6 h, read-out: pMLKL (IC50)
# Protocol: MLKL Phosphorylation High-Content Assay
# HT29-L23 human colorectal adenocarcinoma cells were maintained in RPMI 1640 medium containing 10% heat-inactivated FBS, 1% Penicillin-Streptomycin and 10 mM HEPES. Cells were seeded at 2,000 cells/well in 384 well tissue culture-treated microplates (Greiner #781090-3B) and incubated at 37° C. (5% CO2/95% O2) for 2 d. On the day of the assay, the cells were treated with test compounds at final concentrations of 6.25 to 0.106 μM for 30 min at 37° C. (5% CO2/95% O2). Necroptopsis was induced using a mixture of human TNFα (35 ng/mL) (Peprotech #300-01A), SMAC mimetic (from US 2015/0322111 A1) (700 nM) and Z-VAD (140 nM) (BD pharmingen #51-6936). Following 6 h incubation at 37° C. (5% CO2/95% O2), the cells were fixed with 4% formaldehyde (ACROS 11969-0010) for 15 min at rt, then permeabilized with phosphate buffered saline (PBS) containing 0.2% Triton-X-100 for 10 min. MLKL phosphorylation was detected using anti-MLKL (phospho S358) antibody (Abcam #ab187091) (1:1000 dilution in Blocking Buffer [PBS supplemented with 0.1% BSA]) with ON incubation at 4° C. After washing three times in PBS, goat anti-rabbit Alexa-488 (1:1000 dilution) (Life Technologies, A1 1008) and Hoechst 33342 (Life Technologies, H3570) (1:2000 dilution) in Blocking Buffer were added for 1 h at rt. Following another three cycles of washes in PBS, the microplates were sealed, and cellular images were acquired in the Cellomics ArrayScan VTI high-content imager equipped with an X1 camera. Fluorescent images were taken using a 10× objective and the 386-23 BGRFRN_BGRFRN and 485-20 BGRFRN_BGRFRN filter sets, for nuclei and MLKL phosphorylation, respectively. The image sets were analyzed using the Compartmental Analysis Bioapplication software (Cellomics). The level of MLKL phosphorylation was quantified as MEAN_CircRingAvglntenRatio. The maximal inhibitory response was defined by the activity induced by Necls (CAS #: 852391-15-2, 6.25 μm). The IC50 value was defined as the concentration of compound that produces 50% of the maximal inhibition. The data were fitted using the 4-parameter logistic equation to calculate the IC50 and Ymax values.
row,Compound,IC50
1,"CNC(=O)c1n[nH]c2cc(-c3cc(C(=O)NC(C)CCc4ccccc4)n(C)n3)ccc12 (racemic) [Example 36, N-methyl-6-(1-methyl-5-((4-phenylbutan-2-yl)carbamoyl)-1H-pyrazol-3-yl)-1H-indazole-3-carboxamide]",0.6 µM
2,"CC(C)NC(=O)c1n[nH]c2cc(-c3ccc(C(=O)NCC[C@H](O)c4ccc(Cl)cc4)s3)ccc12 [Example 9, (S)-6-(5-((3-(4-chlorophenyl)-3-hydroxypropyl)carbamoyl)thiophen-2-yl)-N-isopropyl-1H-indazole-3-carboxamide]",0.5 µM
